Data published in patent US9718804B2, “GSK-3 inhibitors” (BRISTOL-MYERS SQUIBB COMPANY, priority 2013, dated 2017).
pIC50: −log10 of the molar value. Like-named read-outs stand apart in the source and are kept apart here.

Assays:
GSK3β = GSK3β (Homo sapiens, UniProt P49841); test: GSK3β kinase assay (Caliper LabChip, fluoresceinated peptide substrate); format: biochemical; conditions: for IC50: first value of the cell, 250 pM enzyme, 20 uM ATP, 20 hours at room temperature, read-out: GSK3β/α (nM): GSK3β IC50
GSK3β, sequence (P49841 whole entry, species assumed): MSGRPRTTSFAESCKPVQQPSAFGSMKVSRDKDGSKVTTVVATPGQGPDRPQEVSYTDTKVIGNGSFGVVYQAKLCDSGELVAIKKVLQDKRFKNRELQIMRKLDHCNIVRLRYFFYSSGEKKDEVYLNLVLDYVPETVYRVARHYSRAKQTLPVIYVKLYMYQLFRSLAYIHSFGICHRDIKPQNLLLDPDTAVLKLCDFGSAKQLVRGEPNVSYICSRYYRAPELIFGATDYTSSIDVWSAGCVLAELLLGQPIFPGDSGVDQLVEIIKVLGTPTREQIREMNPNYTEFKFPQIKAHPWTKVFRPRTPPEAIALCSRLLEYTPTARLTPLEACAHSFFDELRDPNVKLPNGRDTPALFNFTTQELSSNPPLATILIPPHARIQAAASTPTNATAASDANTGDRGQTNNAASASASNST
Protocol: (§1) The kinase assay was performed in V-bottom 384-well plates. […] The reaction was incubated at room temperature for 20 hours and terminated by adding 45 μl of 35 mM EDTA to each sample. The reaction mixture was analyzed on the Caliper LabChip3000 (Caliper, Hopkinton, Mass.) by electrophoretic separation of the unphosphorylated substrate and phosphorylated product. […] Compounds were dissolved at 10 mM in dimethylsulfoxide (DMSO) and evaluated at eleven concentrations. IC50 values were derived by non-linear regression analysis.

GSK3α = GSK3α (Homo sapiens, UniProt P49840); test: GSK3α kinase assay (Caliper LabChip, fluoresceinated peptide substrate); format: biochemical
GSK3α, sequence (P49840 whole entry, species assumed): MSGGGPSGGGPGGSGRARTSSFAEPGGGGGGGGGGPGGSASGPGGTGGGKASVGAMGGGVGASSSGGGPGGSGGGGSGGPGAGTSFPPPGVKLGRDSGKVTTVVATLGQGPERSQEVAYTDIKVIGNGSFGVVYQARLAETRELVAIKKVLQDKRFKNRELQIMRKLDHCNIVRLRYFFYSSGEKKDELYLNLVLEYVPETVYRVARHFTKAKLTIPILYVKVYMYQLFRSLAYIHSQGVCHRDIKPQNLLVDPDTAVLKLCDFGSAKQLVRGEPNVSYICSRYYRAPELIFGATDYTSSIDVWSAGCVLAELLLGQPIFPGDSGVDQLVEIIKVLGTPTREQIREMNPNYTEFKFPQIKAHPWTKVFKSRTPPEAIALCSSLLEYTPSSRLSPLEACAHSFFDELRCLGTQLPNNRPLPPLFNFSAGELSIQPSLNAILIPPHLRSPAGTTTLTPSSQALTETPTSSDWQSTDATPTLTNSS
Protocol: as §1

pTau = pTau assay (no method described); format: cell-based

Compound | IC50 (GSK3β) | pIC50 (GSK3α) | pIC50 (pTau) | pIC50 (GSK3β) | IC50 (GSK3α; second value of the cell, 250 pM enzyme, 20 uM ATP, 20 hours at room temperature, read-out: GSK3β/α (nM): GSK3α IC50)
O=C(Nc1cnccc1-c1ccccc1)c1ccnc(Nc2ccccn2)c1 [Example 1, N-(4-Phenylpyridin-3-yl)-2-(pyridin-2-ylamino)isonicotinamide] | 3.4 nM | 8.59 | 6.67 |  | 
O=C(Nc1cnccc1-c1ccccc1)c1ccnc(Nc2cccc(C(F)(F)F)n2)c1 [Example 2, N-(4-Phenylpyridin-3-yl)-2-((6-(trifluoromethyl)pyridin-2-yl)amino)isonicotinamide] | 6.8 nM | 8.14 | 6.24 |  | 
O=C(Nc1cnccc1-c1ccccc1)c1ccnc(Nc2cc(C(F)(F)F)ccn2)c1 [Example 3, N-(4-Phenylpyridin-3-yl)-2-((4-(trifluoromethyl)pyridin-2-yl)amino)isonicotinamide] |  |  | 6.15 | 8.05 | 8.7 nM
Cc1ccc(Nc2cc(C(=O)Nc3cnccc3-c3ccccc3)ccn2)nc1 [Example 5, 2-((5-Methylpyridin-2-yl)amino)-N-(4-phenylpyridin-3-yl)isonicotinamide] | 0.77 nM | 8.32 | 6.74 |  | 
Cc1ccnc(Nc2cc(C(=O)Nc3cnccc3-c3ccccc3)ccn2)c1 [Example 6, 2-((4-Methylpyridin-2-yl)amino)-N-(4-phenylpyridin-3-yl)isonicotinamide] | 1.1 nM | 8.89 | 6.79 |  | 
O=C(Nc1cnccc1-c1ccccc1)c1ccnc(Nc2cccc(F)n2)c1 [Example 7, 2-((6-Fluoropyridin-2-yl)amino)-N-(4-phenylpyridin-3-yl)isonicotinamide] | 8.5 nM | 8.23 | 6.60 |  | 
O=C(Nc1cnccc1-c1ccccc1)c1ccnc(Nc2ccc(F)cn2)c1 [Example 8, 2-((5-Fluoropyridin-2-yl)amino)-N-(4-phenylpyridin-3-yl)isonicotinamide] | 4.1 nM | 8.72 | 6.88 |  | 
Cc1cc(Nc2cc(C(=O)Nc3cnccc3-c3ccccc3)ccn2)ncc1F [Example 9, 2-((5-Fluoro-4-methylpyridin-2-yl)amino)-N-(4-phenylpyridin-3-yl)isonicotinamide] | 4.1 nM | 8.60 | 6.96 |  | 
N#Cc1ccc(Nc2cc(C(=O)Nc3cnccc3-c3ccccc3)ccn2)nc1 [Example 10, 2-((5-Cyanopyridin-2-yl)amino)-N-(4-phenylpyridin-3-yl)isonicotinamide] | 0.98 nM | 9.24 | 7.57 |  | 
CCOc1ccncc1NC(=O)c1ccnc(Nc2ccccn2)c1 [Example 11, N-(4-Ethoxypyridin-3-yl)-2-(pyridin-2-ylamino)isonicotinamide] | 8.9 nM | 8.55 | 6.53 |  | 
CCOc1ccncc1NC(=O)c1ccnc(Nc2nccc3ccccc23)c1 [Example 12, N-(4-Ethoxypyridin-3-yl)-2-(isoquinolin-1-ylamino)isonicotinamide] | 5.9 nM | 7.46 | 5.27 |  | 
CCOc1ccncc1NC(=O)c1ccnc(Nc2cc(C)ccn2)c1 [Example 13, N-(4-Ethoxypyridin-3-yl)-2-((4-methylpyridin-2-yl)amino)isonicotinamide] | 1.4 nM | 8.64 | 6.81 |  | 
CCOc1ccncc1NC(=O)c1ccnc(Nc2ccc(C)cn2)c1 [Example 14, N-(4-Ethoxypyridin-3-yl)-2-((5-methylpyridin-2-yl)amino)isonicotinamide] | 0.47 nM | 8.82 | 6.90 |  | 
CCOc1ccncc1NC(=O)c1ccnc(Nc2ccc(C(F)(F)F)cn2)c1 [Example 15, N-(4-Ethoxypyridin-3-yl)-2-((5-trifluoromethylpyridin-2-yl)amino)isonicotinamide] | 1.3 nM | 9.25 | 7.38 |  | 
CCOc1ccncc1NC(=O)c1ccnc(Nc2ccc(C#N)cn2)c1 [Example 16, N-(4-Ethoxypyridin-3-yl)-2-((5-cyanopyridin-2-yl)amino)isonicotinamide] | 1.1 nM | 9.21 | 7.92 |  | 
CC(C)(C)COc1ccncc1NC(=O)c1ccnc(Nc2ccc(C(F)(F)F)cn2)c1 [Example 17, N-(4-(Neopentyloxy)pyridin-3-yl)-2-((5-(trifluoromethyl)pyridin-2-yl)amino)isonicotinamide] | 1.6 nM | 9.05 | 7.37 |  | 
O=C(Nc1cnccc1OCC(F)(F)F)c1ccnc(Nc2ccc(C(F)(F)F)cn2)c1 [Example 18, N-(4-(Trifluoroethoxy)pyridin-3-yl)-2-((5-(trifluoromethyl)pyridin-2-yl)amino)isonicotinamide] | 0.71 nM | 9.38 | 7.89 |  | 

Compound | IC50 (GSK3β) | pIC50 (GSK3α) | pIC50 (pTau) | pIC50 (GSK3β) | IC50 (GSK3α; second value of the cell, 250 pM enzyme, 20 uM ATP, 20 hours at room temperature, read-out: GSK3β/α (nM): GSK3α IC50)
CC(C)Oc1ccncc1NC(=O)c1ccnc(Nc2ccc(C(F)(F)F)cn2)c1 [Example 19, N-(4-(Isopropoxy)pyridin-3-yl)-2-((5-(trifluoromethyl)pyridin-2-yl)amino)isonicotinamide] | 1.6 nM | 9.26 | 7.80 |  | 
O=C(Nc1cnccc1C1CCCCO1)c1ccnc(Nc2ccc(C(F)(F)F)cn2)c1 (stereo not shown) [Example 41, N-(4-(Tetrahydro-2H-pyran-2-yl)pyridin-3-yl)-2-((5-(trifluoromethyl)pyridin-2-yl)amino)isonicotinamide] | 13 nM |  | 6.92 |  | 
O=C(Nc1cnccc1-c1ccccn1)c1ccnc(Nc2ccc(C(F)(F)F)cn2)c1 [Example 43, N-([2,4′-Bipyridin]-3′-yl)-2-((5-(trifluoromethyl)pyridin-2-yl)amino)isonicotinamide] | 0.77 nM | 9.23 |  |  | 
O=C(Nc1cnc(F)cc1OCC(F)(F)F)c1ccnc(Nc2ccc(C(F)(F)F)cn2)c1 [Example 69, N-(6-Fluoro-4-(2,2,2-trifluoroethoxy)pyridin-3-yl)-2-((5-(trifluoromethyl)pyridin-2-yl)amino)isonicotinamide] | 2.6 nM |  | 6.78 |  | 
Cc1cc(C2(C3CC3)OCCO2)c(NC(=O)c2ccnc(Nc3ccc(C(F)(F)F)cn3)c2)cn1 [Example 105, N-(4-(2-Cyclopropyl-1,3-dioxolan-2-yl)-6-methylpyridin-3-yl)-2-((5-(trifluoromethyl)pyridin-2-yl)amino)isonicotinamide] |  |  | 8.70 |  | 
N#Cc1cnn(-c2cncc(NC(=O)c3ccnc(Nc4ccc(C(F)(F)F)cn4)c3)c2)c1 [Example 118, N-(5-(4-Cyano-1H-pyrazol-1-yl)pyridin-3-yl)-2-((5-(trifluoromethyl)pyridin-2-yl)amino)isonicotinamide] | 7.3 nM |  | 6.44 |  | 
CCc1nc(Nc2cc(C(=O)Nc3cncc(-c4ccccc4F)c3)ccn2)ccc1C#N [Example 148, 2-((5-Cyano-6-ethylpyridin-2-yl)amino)-N-(5-(2-fluorophenyl)pyridin-3-yl)isonicotinamide] | 4.5 nM |  | 6.44 |  | 
COC(=O)c1cccc(Nc2cc(C(=O)Nc3cncc(-c4ccccc4F)c3)ccn2)n1 [Example 149, Methyl 6-((4-((5-(2-fluorophenyl)pyridin-3-yl)carbamoyl)pyridin-2-yl)amino)picolinate] | 2.7 nM |  | 5.77 |  | 
O=C(Nc1cncc(-c2ccccc2F)c1)c1ccnc(Nc2cccc(Cl)n2)c1 [Example 150] | 3.5 nM |  | 5.96 |  | 
NC(=O)c1ccc(Nc2cc(C(=O)Nc3cncc(-c4ccccc4F)c3)ccn2)nc1 [Example 160, 6-((4-((5-(2-Fluorophenyl)pyridin-3-yl)carbamoyl)pyridin-2-yl)amino)nicotinamide] | 16 nM | 8.12 |  |  | 
COC(=O)/C=C/c1ccc(Nc2cc(C(=O)Nc3cncc(-c4ccccc4F)c3)ccn2)nc1 [Example 161] | 23 nM | 8.10 |  |  | 
N#Cc1ccc(-c2cncc(NC(=O)c3ccnc(Nc4cccc(C#N)n4)c3)c2)cc1 [Example 162, N-(5-(4-Cyanophenyl)pyridin-3-yl)-2-((6-cyanopyridin-2-yl)amino)isonicotinamide] |  | 8.62 |  | 8.46 | 
O=C(Nc1cnccc1OCC(F)(F)F)c1cc(Nc2ccc(C(F)(F)F)cn2)ncc1F [Example 168, 5-Fluoro-N-(4-(2,2,2-trifluoroethoxy)pyridin-3-yl)-2-((5-(trifluoromethyl)pyridin-2-yl)amino)isonicotinamide] | 1.5 nM | 9.14 |  |  | 
CC(C)[S+]([O-])c1ccncc1NC(=O)c1ccnc(Nc2ccc(C(F)(F)F)cn2)c1 (stereo not shown) [Example 179, N-(4-(isopropylsulfinyl)pyridin-3-yl)-2-((5-(trifluoromethyl)pyridin-2-yl)amino)isonicotinamide] | 4.3 nM | 8.92 |  |  | 
CS(=O)(=O)c1ccncc1NC(=O)c1ccnc(Nc2ccc(C(F)(F)F)cn2)c1 [Example 181, N-(4-(Methylsulfonyl)pyridin-3-yl)-2-((5-(trifluoromethyl)pyridin-2-yl)amino)isonicotinamide] | 1.2 nM | 9.11 |  |  | 
C=CCOc1ccc(-c2cnncc2NC(=O)c2ccnc(Nc3ccc(C(F)(F)F)cn3)c2)cc1 [Example 199, N-(5-(4-(Allyloxy)phenyl)pyridazin-4-yl)-2-((5-(trifluoromethyl)pyridin-2-yl)amino)isonicotinamide] | 8.7 nM |  | 6.33 |  | 
O=C(Nc1cnncc1C(=O)C1CC1)c1ccnc(Nc2ccc(C(F)(F)F)cn2)c1 [Example 202, N-(5-(Cyclopropanecarbonyl)pyridazin-4-yl)-2-((5-(trifluoromethyl)pyridin-2-yl)amino)isonicotinamide] | 2.9 nM | 8.96 |  |  | 
